Test results reported in US11897856B1, “N-(Naphthalen-1-ylcarbamothioyl)furan-2-carboxamide as an eco-friendly insecticidal agent against Spodoptera littoralis (boisd.)” (KING FAISAL UNIVERSITY, priority 2023, dated 2024).
Converted amounts (≈) assume the structure as drawn. Read-outs that look alike come from different tables or passages of the source.

System: Spodoptera littoralis
Experiment: Insecticidal bioassay screening (castor leaf dip, larval mortality)
Assay type: in vivo
Conditions: for Toxicity index %: 72 hrs, Diflubenzuron's LC50/compound's LC50 x 100; for LC90 (mg/L) at 95%: after 72 hrs of treatment; for LC50: Spodoptera littoralis, in Gossypium hirsutum, foliar
Method: Five concentrations (200, 100, 50, 25, 12.5 ppm) were designed for this synthetic compound and the reference Diflubenzuron compound as the dynamic ingredients based on ppm via diluting the commercial formulation.
In this experiment, castor leaves are immersed in each of the previously prepared concentrations of the components for 10 seconds and then left to dry for 60 minutes. Larvae of the second and fourth instars of each checked strain are prepared with treated leaves in gauze-covered glass containers for 72 hrs. An untreated control is made in which leaves are dipped in triton x-100 and distilled water only. Then the preserved leaves were removed & fresh, untreated leaves were provided for 72 hours. Three replicates (10 larvae each) were checked for each concentration. Daily inspection was carried out for all treatments and mortality percentages were recorded 3 days (72 hours) after treatment. The average mortality percentage was corrected employing Abbott's formula. The corrected mortality rate for each of the previously synthesized compounds is statistically calculated according to Finney (1970). Through this rate, the corresponding concentration test lines (LDP lines) are assessed.

[1] = against Spodoptera littoralis under laboratory conditions, instar not stated
[2] = 72 h, read-out: LC50 (mg/L) at 95%, 2nd instar larvae, after 72 hrs of treatment
[3] = 72 h, read-out: LC50 (mg/L) at 95%, 4th instar larvae, after 72 hrs of treatment

Question: How did the Toxicity index % (2nd instar larvae) turn out when `O=C(NC(=S)Nc1cccc2ccccc12)c1ccco1` [Compound 2, N-(Naphthalen-1-ylcarbamothioyl)furan-2-carboxamide] was run?
Answer: 11.3%

Question: What about the “LC90 (mg/L) at 95%” value (2nd instar larvae) of the same molecule?
Answer: 3612.2 mg/L (≈ 12200 µM)

Question: And the Toxicity index % (4th instar larvae)?
Answer: 12.9%

Question: What about the “LC90 (mg/L) at 95%” value (4th instar larvae) of the same molecule?
Answer: 1727.9 mg/L (≈ 5830 µM)

Question: And the LC50 [1]?
Answer: 400 mg/L (≈ 1350 µM)

Question: What about the “Insecticidal activity (in words)” value (against Spodoptera littoralis, compared with Diflubenzuron) of the same molecule?
Answer: active against Spodoptera littoralis

Question: And the “LC50 (mg/L) at 95%” value (in vivo)?
Answer: 1211.2 mg/L (≈ 4090 µM)

Question: What does the source list for `O=C(NC(=O)c1c(F)cccc1F)Nc1ccc(Cl)cc1` [Diflubenzuron, reference compound]?
Answer: Toxicity index % (2nd instar larvae): 100%; LC90 (mg/L) at 95% (2nd instar larvae): 520.0 mg/L (≈ 1670 µM); Toxicity index % (4th instar larvae): 100%; LC90 (mg/L) at 95% (4th instar larvae): 1540.5 mg/L (≈ 4960 µM); LC50 [2]: 45.2 mg/L (≈ 145 µM); LC50 [3]: 144 mg/L (≈ 464 µM); LC50 [1]: 45.2 mg/L (≈ 145 µM)

Question: Which results are given for `O=C(NC(=S)Nc1cccc2ccccc12)c1ccco1` [N-(Naphthalen-1-ylcarbamothioyl)furan-2-carboxamide]?
Answer: LC50 [2]: ~400 mg/L (≈ 1350 µM); LC50 [3]: ~1210 mg/L (≈ 4090 µM)
